{
  "source": "patent US5248674A",
  "about": "“Percutaneous administration of 3'-azide'-deoxythymidine” (Nelson-Sumisho Co., Ltd., priority 1989, dated 1993)",
  "key": {"[1]": {"type": "in vitro ADME, rat (Wistar strain, male)", "settings": "rat skin; for F, AZT permeation rate: n = 3; for promotion of AZT permeation through the skin (in words): in vitro, oleic acid vs water, Azone and S-318 vs 10% oleic acid", "procedure": "A. The abdominal skin of a rat (Wistar strain, male, 200 g) was removed after shaving and placed between the chambers of a diffusion cell comprising two chambers having an effective permeation area of 0.95 cm^2 and a capacity of 2.3 ml for each chamber. The chamber of the corneum side received an AZT solution to be tested and the other chamber received water. The cell was warmed to 37° C. while the permeation of the drug towards the opposite chamber was measured. The AZT solution contained […] (5 mg/ml) AZT either in water or an aqueous solution of 10% oleic acid. […] The results are plotted In FIG. 1. The permeation rate during the stable permeation state (Fss) was determined as follows from the slope of the plots between 10 and 24 hours:\nB. In a manner similar to that described in A, further agents capable of promoting permeation of AZT were searched. The promotion rate by each of the tested agents was expressed in relative terms when the rate of 10% oleic acid is tentatively determined as 1.\nC. In the similar manner as in A and B, the permeation of AZT as a function of its concentration (3.7 mM-112 mM) was studied. 112 mM (about 3%) is a preferred concentration of AZT for practical purposes in producing a percutaneous AZT composition. The combination of a) 3% Azone+20% MP or b) 5% S-318+10% OA+20% PG+10% MP was used as a permeation promoting agent."}, "[2]": {"assay": "In vivo study - plasma AZT level by percutaneous (oleic acid pretreated skin) and oral administration of AZT", "parameters": "species or system rat (Wistar strain, male)", "settings": "for concentration at 0.5 h / concentration at 1 h / concentration at 2 h / concentration at 4 h / concentration at 6 h / concentration at 8 h / concentration at 24 h: plasma", "procedure": "Three male rates of Wistar strain weighing about 200 g was allotted to each group. The abdominal portion of the rat was shaven and pretreated with 10% oleic acid for 24 hours. Then a 1 ml aliquot of a solution containing 0.5% (18.7 mM) AZT and 10% oleic acid in water was applied over 4.9 cm^2 area of the skin by a glass cell secured on the body of the rat. AZT level in the plasma sampled at […], 2, 4, 6, 8 and 24 hours after the administration was determined by HPLC. A control group orally received 0.5 ml water containing 0.6 mg AZT."}, "[3]": {"assay": "In vivo study - percutaneous absorption of AZT without pretreatment with 10% oleic acid", "parameters": "species or system rat (Wistar strain, male)", "settings": "no pretreatment, rat", "procedure": "In a manner similar to that described in Example 2, the possibility of percutaneous absorption of AZT without pretreatment with 10% oleic acid was studied.\nAs absorption promoting agents, a) an aqueous solution containing 3% Azone and 20% MP, and b) an aqueous solution containing 5% S-318, 10% OA, 20% PG and 10% MP were prepared. AZT was dissolved at 3.7 mM concentration in each of said absorption agents and 1 ml of the resulting solution was applied to the skin of rats in a similar manner as in Example 2."}, "[4]": {"settings": "cited from earlier work"}, "[5]": {"system": "reverse transcriptases", "settings": "background statement; cited from earlier work"}, "[6]": {"settings": "3.7 mM (1 mg/ml) AZT, 3% Azone + 20% MP"}, "[7]": {"settings": "3.7 mM (1 mg/ml) AZT, 5% S-318 + 10% OA + 20% PG + 10% MP"}, "[8]": {"settings": "18.7 mM (5 mg/ml) AZT, 3% Azone + 20% MP"}, "[9]": {"settings": "18.7 mM (5 mg/ml) AZT, 5% S-318 + 10% OA + 20% PG + 10% MP"}, "[10]": {"settings": "56.2 mM (15 mg/ml) AZT, 3% Azone + 20% MP"}, "[11]": {"settings": "56.2 mM (15 mg/ml) AZT, 5% S-318 + 10% OA + 20% PG + 10% MP"}, "[12]": {"settings": "112 mM (30 mg/ml) AZT, 3% Azone + 20% MP"}, "[13]": {"settings": "112 mM (30 mg/ml) AZT, 5% S-318 + 10% OA + 20% PG + 10% MP"}, "[14]": {"settings": "topical or ocular, percutaneous, 1 ml 0.5% AZT + 10% oleic acid, 4.9 cm^2, rat"}, "[15]": {"settings": "oral, 0.6 mg AZT in 0.5 ml water, rat"}, "[16]": {"settings": "according to Klecker et al. 1987"}},
  "note": "Read-outs that look alike come from different tables or passages of the source.",
  "data": [
    {"smiles": "Cc1cn([C@H]2C[C@H](N=[N+]=[N-])[C@@H](CO)O2)c(=O)[nH]c1=O", "note": "[AZT, 3'-azide-3'-deoxythymidine]", "values": [
      {"measurement": "relative promotion rate", "setting": "[1]; [6]", "value": 6.2},
      {"measurement": "F, AZT permeation rate", "setting": "[1]; [6]", "value": 0.28, "unit": "μmol/cm^2 /h"},
      {"measurement": "relative promotion rate", "setting": "[1]; [7]", "value": 4.4},
      {"measurement": "F, AZT permeation rate", "setting": "[1]; [7]", "value": 0.20, "unit": "μmol/cm^2 /h"},
      {"measurement": "relative promotion rate", "setting": "[1]; [8]", "value": 16.4},
      {"measurement": "F, AZT permeation rate", "setting": "[1]; [8]", "value": 0.74, "unit": "μmol/cm^2 /h"},
      {"measurement": "relative promotion rate", "setting": "[1]; [9]", "value": 14.0},
      {"measurement": "F, AZT permeation rate", "setting": "[1]; [9]", "value": 0.63, "unit": "μmol/cm^2 /h"},
      {"measurement": "relative promotion rate", "setting": "[1]; [10]", "value": 49.3},
      {"measurement": "F, AZT permeation rate", "setting": "[1]; [10]", "value": 2.22, "unit": "μmol/cm^2 /h"},
      {"measurement": "relative promotion rate", "setting": "[1]; [11]", "value": 53.6},
      {"measurement": "F, AZT permeation rate", "setting": "[1]; [11]", "value": 2.41, "unit": "μmol/cm^2 /h"},
      {"measurement": "relative promotion rate", "setting": "[1]; [12]", "value": 71.6},
      {"measurement": "F, AZT permeation rate", "setting": "[1]; [12]", "value": 3.22, "unit": "μmol/cm^2 /h"},
      {"measurement": "relative promotion rate", "setting": "[1]; [13]", "value": 108},
      {"measurement": "F, AZT permeation rate", "setting": "[1]; [13]", "value": 4.85, "unit": "μmol/cm^2 /h"},
      {"measurement": "permeation rate during the stable permeation state (Fss)", "setting": "[1]; 37° C, 18.7 mM (5 mg/ml) AZT in 10% oleic acid, slope between 10 and 24 hours", "value": 0.045, "unit": "μmol/cm^2 /h"},
      {"measurement": "percutaneous absorption of AZT", "setting": "[2]; applied to rat skin as a simple water solution (data not shown)", "value": "not observed at all"},
      {"measurement": "percutaneous absorption of AZT, detection in plasma", "setting": "[2]; in the presence of oleic acid, rat", "value": "could be detected in the plasma over 24 hours"},
      {"measurement": "drug level in the plasma after oral administration", "setting": "[2]; oral, 0.6 mg AZT, rat", "value": "undetectable at 6 hours after the administration"},
      {"measurement": "concentration at 0.5 h", "setting": "[2]; [14]", "value": 200, "unit": "nM"},
      {"measurement": "concentration at 1 h", "setting": "[2]; [14]", "value": 600, "unit": "nM"},
      {"measurement": "concentration at 2 h", "setting": "[2]; [14]", "value": 700, "unit": "nM"},
      {"measurement": "concentration at 4 h", "setting": "[2]; [14]", "value": 1500, "unit": "nM"},
      {"measurement": "concentration at 6 h", "setting": "[2]; [14]", "value": 1500, "unit": "nM"},
      {"measurement": "concentration at 8 h", "setting": "[2]; [14]", "value": 1500, "unit": "nM"},
      {"measurement": "concentration at 24 h", "setting": "[2]; [14]", "value": 4000, "unit": "nM"},
      {"measurement": "concentration at 0.5 h", "setting": "[2]; [15]", "value": 3100, "unit": "nM"},
      {"measurement": "concentration at 1 h", "setting": "[2]; [15]", "value": 2500, "unit": "nM"},
      {"measurement": "concentration at 2 h", "setting": "[2]; [15]", "value": 500, "unit": "nM"},
      {"measurement": "concentration at 4 h", "setting": "[2]; [15]", "value": 200, "unit": "nM"},
      {"measurement": "concentration at 6 h", "setting": "[2]; [15]", "value": "< 100", "unit": "nM"},
      {"measurement": "concentration at 8 h", "setting": "[2]; [15]", "value": "< 100", "unit": "nM"},
      {"measurement": "concentration at 24 h", "setting": "[2]; [15]", "value": "< 100", "unit": "nM"},
      {"measurement": "AZT level in the plasma", "setting": "[3]; 3.7 mM AZT with a) 3% Azone + 20% MP or b) 5% S-318 + 10% OA + 20% PG + 10% MP", "value": "a high AZT level in the plasma was achieved over a period of 10 hours"},
      {"measurement": "efficient penetration of AZT through the skin", "setting": "[3]; 3.7 mM AZT, promoting agent a) 3% Azone + 20% MP", "value": "especially remarkable"},
      {"measurement": "clearance (Cltot)", "setting": "[4]; [16]", "value": 78, "unit": "L/h"},
      {"measurement": "plasma AZT level required for AIDS treatment (Css)", "setting": "[4]; [16]", "value": 1000, "unit": "nM"},
      {"measurement": "maintenance of an adequate AZT level in blood", "setting": "[4]; conventional oral administration, 5 mg/kg every 4 hours, Klecker et al. 1987", "value": "impossible to maintain an adequate AZT level in blood"},
      {"measurement": "inhibition of reverse transcriptases", "setting": "[5]", "value": "effective inhibitor of reverse transcriptases"}
    ]},
    {"smiles": "CCCCCCCC/C=C\\CCCCCCCC(=O)O", "note": "[oleic acid]", "values": [
      {"measurement": "promotion of AZT permeation through the skin (in words)", "setting": "[1]", "value": "promoted permeation of AZT through the skin"}
    ]},
    {"smiles": "CCCCCCCCCCCCN1CCCCCC1=O", "note": "[Azone, 1-dodecylazacycloheptane-2-one]", "values": [
      {"measurement": "promotion of AZT permeation through the skin (in words)", "setting": "[1]", "value": "greatly accelerated"}
    ]}
  ]
}
